Source: PubChem BioAssay (NCI)
“And” between values parts separate entries of the source, which are not always exact repeats. Identical values can stand only once.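 Protocol summary: plate cells (96-well), add compound at 5 concentrations, incubate 48 h, interpolate endpoints linearly. Here, GI50 denotes the concentration required for 50% inhibition of growth. TGI marks complete inhibition of growth.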 Where a SMILES comes first, the peptide text is derived from it. [ ]: non-standard residue; d: D form. The star is where a group is joined. ξ: configuration not given here. X6 = FC(F)(F)c1cc(NC(=S)*)cc(C(F)(F)F)c1; ξF = NC(Cc1ccccc1)C(=O)O

How the values were obtained:
Assay in all cases: DTP human tumour cell line panel, 48 h
NCI-H522 lung = system: NCI-H522 lung
SF-295 CNS = system: SF-295 CNS
NCI-H23 lung = system: NCI-H23 lung
MALME-3M melanoma = system: MALME-3M melanoma
KM12 colon = system: KM12 colon
HCT-15 colon = system: HCT-15 colon
OVCAR-5 ovarian = system: OVCAR-5 ovarian
EKVX NSCLC = system: EKVX NSCLC
HL-60(TB) leukemia = system: HL-60(TB) leukemia
SK-MEL-5 melanoma = system: SK-MEL-5 melanoma

| Compound | GI50 (NCI-H522 lung) | TGI (NCI-H522 lung) | GI50 (SF-295 CNS) | TGI (SF-295 CNS) | GI50 (NCI-H23 lung) | TGI (NCI-H23 lung) | GI50 (MALME-3M melanoma) | TGI (MALME-3M melanoma) | GI50 (KM12 colon) | TGI (KM12 colon) | GI50 (HCT-15 colon) | TGI (HCT-15 colon) | GI50 (OVCAR-5 ovarian) | TGI (OVCAR-5 ovarian) | GI50 (EKVX NSCLC) | TGI (EKVX NSCLC) | GI50 (HL-60(TB) leukemia) | TGI (HL-60(TB) leukemia) | GI50 (SK-MEL-5 melanoma) | TGI (SK-MEL-5 melanoma) |
| --- | --- | --- | --- | --- | --- | --- | --- | --- | --- | --- | --- | --- | --- | --- | --- | --- | --- | --- | --- | --- |
| CC(C)CCC[C@@H](C)[C@H]1CC[C@H]2[C@@H]3CC=C4C[C@@H](C(C(=O)O)C(=O)O)CC[C@]4(C)[C@H]3CC[C@]12C | 0.153 µM | 0.527 µM | 0.0643 µM | 0.153 µM | 0.147 µM | 0.63 µM | 0.134 µM | 0.502 µM | 0.117 µM | 0.292 µM | 0.148 µM | 0.612 µM | 0.198 µM | 5.56 µM | 0.0786 µM | 0.245 µM | 0.252 µM | 1.48 µM | 0.113 µM | 0.266 µM |
| NC(=O)c1cccc2cn(-c3ccc([C@@H]4CCCNC4)cc3)nc12 | 20.4 µM | 55.6 µM | 4.65 µM | 18.1 µM | 11.3 µM | 45 µM | 15.2 µM | 30.5 µM | 15.7 µM | 30.6 µM | 14.8 µM | 45.5 µM | 24 µM | 64.8 µM | 19.7 µM | 64.2 µM | 15.7 µM | 34.6 µM | 13.8 µM | 27 µM |
| CCCCC(=O)OCC(=O)[C@]1(O)Cc2c(O)c3c(c(O)c2[C@@H](OC2CC(NC(=O)C(F)(F)F)C(O)C(C)O2)C1)C(=O)c1c(OC)cccc1C3=O (some centres not stated) | – | 3.9 µM | – | 2.19 µM | – | 1.98 µM | – | 2.76 µM | – | > 70.8 µM | – | 6.9 µM | – | 7.49 µM | – | 13.5 µM | – | 6.41 µM | – | 1.64 µM |
| CCOc1ccc(NC(=O)C(=O)CC(=O)c2c[n+](=O)c3cc(C)c(C)cc3n2[O-])cc1 | – | > 100 µM | – | > 100 µM | – | > 100 µM | – | > 100 µM | – | > 100 µM | – | > 100 µM | – | > 100 µM | – | > 100 µM | – | > 100 µM | – | > 100 µM |
| O=C1C2C(C(=O)N1OS(=O)(=O)c1ccccc1)N(Cc1ccccc1)C(=O)N2Cc1ccccc1 (configuration not stated) | – | > 100 µM | – | > 100 µM | – | > 100 µM | – | > 100 µM | – | > 100 µM | – | > 100 µM | – | > 100 µM | – | > 100 µM | – | > 100 µM | – | > 100 µM |
| CCCCCCCCCCCCCCCCCC(CCCCCCCCCCCCCCCCC)OP(=O)(O)O | – | > 100 µM | – | > 100 µM | – | > 100 µM | – | > 100 µM | – | > 100 µM | – | > 100 µM | – | > 100 µM | – | > 100 µM | – | > 100 µM | – | > 100 µM |
| COC(=O)[C@@H]1[C@H](O)[C@H](C)[C@H](O)[C@@](C)(O)/C=C\C=C(C)C(=O)Nc2c(C)c(OC(C)=O)c3c(c2O)C(=O)C(C)=C2OCOC(=C23)C(C)=C[C@@](C)(O)[C@H](O)[C@@H](C)[C@H]1OC(C)=O | 17.8 µM | > 100 µM and 66.9 µM and 43.6 µM | > 66.9 µM | > 100 µM | – | > 100 µM and 66.9 µM and 47.8 µM | – | > 100 µM and 66.9 µM and 88.6 µM | > 66.9 µM | > 100 µM | 42.5 µM | > 100 µM and 66.9 µM | – | > 100 µM | > 66.9 µM | > 100 µM | 11.5 µM | > 100 µM and 64.6 µM and 39.9 µM | 20.5 µM | > 100 µM and 66.9 µM and 38.4 µM |
| COC1(OC)CCC2C1C1CCC(OC)(OC)C21 (configuration not stated) | – | > 50 µM | – | > 50 µM | – | > 50 µM | – | > 50 µM | – | > 50 µM | – | > 50 µM | – | > 50 µM | – | > 50 µM | – | > 50 µM | – | > 50 µM |
| COC1CCC2C(NS(=O)(=O)c3ccc(C)cc3)CCCC2O1 (configuration not stated) (tested in a mixture with another compound) | – | 31.5 µM | – | 21.4 µM | – | > 34.5 µM | – | > 34.5 µM | – | > 34.5 µM | – | > 34.5 µM | – | > 34.5 µM | – | > 34.5 µM | – | 18.5 µM | – | 19.4 µM |
| O=C1C(=O)N(c2ccc(Cl)cc2Cl)C(=O)C(=O)C1c1nc2ccccc2s1 | – | > 57.2 µM | – | > 100 µM | – | > 100 µM | – | > 100 µM | – | > 100 µM | – | > 100 µM | – | > 100 µM | – | > 100 µM | – | 67.1 µM | – | > 100 µM |
| Clc1cc2nsnc2c(Cl)n1 | – | 36.7 µM | – | > 100 µM | – | 39.9 µM | – | 31.3 µM | – | > 100 µM | – | 45.6 µM | – | > 100 µM | – | > 100 µM | – | 36.2 µM | – | 32.7 µM |
| COc1cc(/C=N/NC(=O)c2ccc(C(F)(F)F)nc2Nc2ccc(Cl)cc2C)ccc1O | 3.31 µM | 14.2 µM | 1.16 µM | 3.23 µM | 3.63 µM | 16.7 µM | 2.19 µM | 10.9 µM | 2.23 µM | 7.16 µM | 0.987 µM | 10.4 µM | 2.9 µM | 15.6 µM | 1.06 µM | 12.4 µM | 1.7 µM | 4.41 µM | 1.41 µM | 3.28 µM |
| COC1=CC(=O)c2nc(-c3ccncc3)[nH]c2C1=O | > 100 µM | > 100 µM | > 100 µM | > 100 µM | > 100 µM | > 100 µM | > 100 µM | > 100 µM | > 100 µM | > 100 µM | > 100 µM | > 100 µM | > 100 µM | > 100 µM | > 100 µM | > 100 µM | > 100 µM | > 100 µM | > 100 µM | > 100 µM |
| COC(=O)[C@@H](NC(=O)CNC(=O)[C@H]1CCCN1C(=O)C(Cc1ccccc1)NC(=S)Nc1cc(C(F)(F)F)cc(C(F)(F)F)c1)C(C)C (some centres not stated) (X6-[ξF][dP]GV-OMe) | 3.04 µM | 8.65 µM | 2.33 µM | 6.12 µM | 2.53 µM | 8.02 µM | 3.88 µM | 15.1 µM | 2.88 µM | 7.75 µM | 2.29 µM | 5.37 µM | 1.93 µM | 3.64 µM | 3.12 µM | 22.3 µM | 3.58 µM | 12.7 µM | 1.45 µM | 2.79 µM |
